Measurements taken from ChEMBL document CHEMBL1122700, “Structure-activity, theoretical, and X-ray studies on the intramolecular interactions in a series of novel histamine H2 receptor antagonists” (1984).

How the values were obtained:
[1] = tested on: Canis familiaris; assay: Inhibition of histamine-stimulated gastric acid secretion in dog after intravenous administration; type: functional; settings: Canis lupus familiaris, Stomach
[2] = molecular target: Histamine H2 receptor (Cavia porcellus) (UniProt P47747); assay: Histamine H2 receptor affinity was assessed in vitro by antagonism of dimaprit-stimulated chronotropic response in guinea pig right atrium at 0.1 ug/mL; type: functional, tissue-based; settings: Cardiac atrium
Sequence of Histamine H2 receptor (Cavia porcellus) (P47747 whole entry): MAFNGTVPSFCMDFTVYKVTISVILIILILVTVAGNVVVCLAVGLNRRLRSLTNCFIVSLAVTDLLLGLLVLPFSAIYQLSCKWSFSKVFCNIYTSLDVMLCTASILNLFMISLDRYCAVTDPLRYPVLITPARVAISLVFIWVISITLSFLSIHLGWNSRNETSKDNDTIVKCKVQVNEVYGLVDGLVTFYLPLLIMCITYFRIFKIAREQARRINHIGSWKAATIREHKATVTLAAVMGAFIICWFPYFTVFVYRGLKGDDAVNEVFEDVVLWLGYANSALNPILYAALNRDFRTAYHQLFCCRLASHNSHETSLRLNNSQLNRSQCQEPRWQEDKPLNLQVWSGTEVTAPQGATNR

[3] = molecular target: Histamine H2 receptor (Cavia porcellus) (UniProt P47747); assay: Binding constant towards histamine H2 receptor

| Compound | ED50 [1] [mg/kg] | Relative potency [2] | -Log KB [3] |
| --- | --- | --- | --- |
| CN(C)Cc1ccc(CSCCNc2n[s+]([O-])nc2N)s1 (stereo not drawn) | 0.008 | – | – |
| CN(C)Cc1cccc(CSCCNc2n[s+]([O-])nc2N)n1 (stereo not drawn) | 0.17 | 0.84 | – |
| CN(C)Cc1cccc(CSCCNc2n[s+]([O-])nc2N)c1 (stereo not drawn) | 0.013 | 0.51 | – |
| CN(C)Cc1ccc(CSCCNc2n[s+]([O-])nc2N)[nH]1 (stereo not drawn) | 0.17 | 0.31 | 6.85 |
